According to patent publication EP0745595A1, “3-(3-Aryloxyphenyl)-1-(substituted methyl)-s-triazine-2,4,6-oxo or thiotrione herbicidal agents” (American Cyanamid Company, priority 1995, dated 1996):

Key:
Type in all cases: in vivo
[…], PRESL. = Preemergence weed control under flooded paddy conditions, MOOVA (Monochoria); details: for Herbicidal effect rating, MOOVA: preemergence, 3-4 weeks after treatment; for MOOVA: pre-weed
Summary of the method: (§1)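 Visual 0-9 score (stand, vigor, malformation, size, chlorosis, appearance vs untreated control) taken 3-4 wk after treatment. Test compounds were added into flood water (1.5-3 cm over silt loam) as 50/50 v/v aqueous/acetone, equivalent to about 0.5-0.063 kg/ha a.i.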

SAGITTARIA PYGMAEA, L. = test: Preemergence weed control under flooded paddy conditions, SAGPY (Arrowhead (Pygmaea)); details: for Herbicidal effect rating, SAGPY: preemergence, 3-4 weeks after treatment; for SAGPY: pre-weed
Summary of the method: as §1

CASSIA OBTUSIFOLIA, L. = test: Preemergence herbicidal evaluation, CASOB (Sicklepod); details: for CASOB herbicidal rating: rated four to five weeks after treatment
Summary of the method: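 Preemergence herbicidal activity against sicklepod was assessed by planting seed mixed with potting soil atop about one inch of soil in pint cups. After treatment the cups were watered and handled per standard greenhouse practice. Tests ended four to five weeks later, with plant stand, vigor, malformation, size, chlorosis and overall appearance scored 0-9 relative to a control.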

[1] = system: ECHINOCHLOA ORYZOIDES (ARD.)FRITSCH; test: Preemergence weed control under flooded paddy conditions, ECHORC (Watergrass (Calif.)); details: for Herbicidal effect rating, ECHORC: preemergence, 3-4 weeks after treatment; for ECHORC: pre-weed
Summary of the method: as §1

[2] = system: GLYCINE MAX(L) MERR. CV. WILLIAMS; test: Preemergence herbicidal evaluation, GLXMAW (Soybean, Williams); details: for GLXMAW herbicidal rating: rated four to five weeks after treatment
Summary of the method: (§2)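 Rated 0-9 by visual comparison with control (stand, vigor, malformation, size, chlorosis, overall appearance) four to five weeks after preemergence soil spray. Dose equivalent to about 0.125 to 0.50 kg per hectare, applied in aqueous acetone to freshly seeded cups kept in greenhouse.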

[3] = system: ORYZA SATIVA, L. TEBONNET; test: Postemergence herbicidal evaluation, ORYSAT (Rice, Tebonnet); parameters: key: 0-9 visual rating scale vs untreated control
Summary of the method: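 This postemergence greenhouse test used Oryza sativa cv. Tebonnet seedlings grown about two weeks in jiffy flats. Test material in 50/50 acetone/water with 0.5% TWEEN®20 surfactant was applied through a spray nozzle at 40 psi. Four to five weeks later, stand, vigor, malformation, size, chlorosis and overall appearance were rated 0-9 relative to a control, and repeat tests were averaged.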

GALIUM APARINE [4] = test: Preemergence herbicidal evaluation, GALAP (Galium); details: for GALAP herbicidal rating: rated four to five weeks after treatment
Summary of the method: as §2

ZEA MAYS L. = test: Preemergence herbicidal evaluation, ZEAMX (Corn, Field); details: for ZEAMX herbicidal rating: rated four to five weeks after treatment
Summary of the method: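 Preemergence herbicidal activity on field corn: seeds in potting soil were sown atop roughly one inch of soil in separate pint cups, treated, and grown under standard greenhouse care. Four to five weeks post-treatment, stand, vigor, malformation, size, chlorosis and overall appearance were compared with a control and scored 0-9.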

[5] = system: ABUTILON THEOPHRASTI, MEDIC.; test: Preemergence herbicidal evaluation, ABUTH (Velvetleaf); details: for ABUTH herbicidal rating: rated four to five weeks after treatment
Summary of the method: as §2

GALIUM APARINE [6] = test: Postemergence herbicidal evaluation, GALAP (Galium); parameters: key to GALAP rating / Herbicidal effect rating, GALAP / GALAP: 0-9 visual rating scale vs untreated control
Summary of the method: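 In this postemergence greenhouse test, two-week-old Galium aparine seedlings grown in jiffy flats received a 40 psi spray of compound in acetone/water (50/50) with 0.5% TWEEN®20 surfactant. After four to five weeks, stand, vigor, malformation, size, chlorosis and overall appearance were compared with untreated controls on a 0-9 scale, averaging multiple tests.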

CYPERUS IRIA = test: Preemergence weed control under flooded paddy conditions, CYPIR (Rice Flatsedge); details: for Herbicidal effect rating, CYPIR: preemergence, 3-4 weeks after treatment; for CYPIR: pre-weed
Summary of the method: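 This preemergence test mimicked flooded paddy conditions: rice flatsedge propagules were sown in the upper 0.5 cm of silt loam in undrained 32 oz. containers (10.5 cm diameter), with water held 1.5 to 3 cm over the soil. After normal greenhouse care, plants were scored 0-9 for stand, vigor, malformation, size, chlorosis and appearance relative to controls.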

[7] = system: GLYCINE MAX(L) MERR. CV. WILLIAMS; test: Postemergence herbicidal evaluation, GLXMAW (Soybean, Williams); parameters: key to GLXMAW rating / Herbicidal effect rating, GLXMAW / GLXMAW: 0-9 visual rating scale vs untreated control
Summary of the method: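 Herbicidal injury to Williams soybean was assessed after a postemergence spray of two-week-old seedlings grown in jiffy flats. Compounds were dispersed in an acetone/water (50/50) mixture with 0.5% TWEEN®20 surfactant and applied at 40 psi. After four to five weeks in the greenhouse, stand, vigor, malformation, size and chlorosis were compared against a control on a 0-9 scale, and results from replicate tests were averaged.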

[8] = system: CYPERUS SEROTINUS, ROTTB.; test: Preemergence weed control under flooded paddy conditions, CYPSE (Flatsedge); details: for Herbicidal effect rating, CYPSE: preemergence, 3-4 weeks after treatment; for CYPSE: pre-weed
Summary of the method: as §1

Methyl 3-{2-[(2-chloro-α,α,α,-trifluoro-p-tolyl)oxy]phenyl}tetrahydro-5-methyl-2,4,6-trioxo-s-triazine-1(2H)-acetate [Compound 28]
3.0: CASOB herbicidal rating (CASSIA OBTUSIFOLIA, L.; Rate 0.500 kg/ha) | CASOB (CASSIA OBTUSIFOLIA, L.; Rate 1.000 kg/ha) | ORYSAT ([3]; Rate 0.500 kg/ha) | ORYSAT rating ([3]; Rate 0.500 kg/ha) | GALAP (GALIUM APARINE [4]; Rate 0.125 kg/ha) | GALAP herbicidal rating (GALIUM APARINE [4]; Rate 0.125 kg/ha) | ABUTH ([5]; Rate 0.250 kg/ha) | ABUTH herbicidal rating ([5]; Rate 0.250 kg/ha)
2.5: ORYSAT ([3]; Rate 0.250 kg/ha) | ORYSAT rating ([3]; Rate 0.250 kg/ha) | GLXMAW ([7]; Rate 0.063 kg/ha)
6.0: GALAP herbicidal rating (GALIUM APARINE [4]; Rate 0.500 kg/ha) | GALAP (GALIUM APARINE [6]; Rate 0.063 kg/ha)
6.5: CYPIR (CYPERUS IRIA; Rate 0.500 kg/ha)
5.0: GALAP (GALIUM APARINE [4]; Rate 1.000 kg/ha) | GALAP (GALIUM APARINE [6]; Rate 0.250 kg/ha) | GALAP rating (GALIUM APARINE [6]; Rate 0.250 kg/ha) | GLXMAW ([7]; Rate 0.500 kg/ha) | GLXMAW rating ([7]; Rate 0.500 kg/ha)
8.5: ECHORC ([1]; Rate 0.500 kg/ha)
4.5: GALAP (GALIUM APARINE [6]; Rate 0.500 kg/ha) | GALAP rating (GALIUM APARINE [6]; Rate 0.500 kg/ha) | GLXMAW ([7]; Rate 0.250 kg/ha) | GLXMAW rating ([7]; Rate 0.250 kg/ha)
5.5: GALAP (GALIUM APARINE [4]; Rate 0.500 kg/ha)
1.5: CASOB (CASSIA OBTUSIFOLIA, L.; Rate 0.500 kg/ha) | ORYSAT ([3]; Rate 0.063 kg/ha)
1.0: GLXMAW ([2]; Rate 0.250 kg/ha) | GLXMAW herbicidal rating ([2]; Rate 0.250 kg/ha) | ZEAMX (ZEA MAYS L.; Rate 0.500 kg/ha) | ZEAMX herbicidal rating (ZEA MAYS L.; Rate 0.500 kg/ha) | ZEAMX (ZEA MAYS L.; Rate 1.000 kg/ha)
4.0: GALAP (GALIUM APARINE [4]; Rate 0.250 kg/ha) | GALAP herbicidal rating (GALIUM APARINE [4]; Rate 0.250 kg/ha) | ABUTH ([5]; Rate 0.500 kg/ha) | ABUTH herbicidal rating ([5]; Rate 0.500 kg/ha) | GALAP (GALIUM APARINE [6]; Rate 0.125 kg/ha) | GALAP rating (GALIUM APARINE [6]; Rate 0.125 kg/ha) | Herbicidal effect rating, CYPIR (CYPERUS IRIA; 0.500 kg/ha)
7.0: ECHORC ([1]; Rate 1.000 kg/ha) | ABUTH ([5]; Rate 1.000 kg/ha) | CYPIR (CYPERUS IRIA; Rate 1.000 kg/ha)
9.0: Herbicidal effect rating, MOOVA ([…], PRESL.; 0.500 kg/ha) | MOOVA ([…], PRESL.; Rate 0.500 kg/ha) | MOOVA ([…], PRESL.; Rate 1.000 kg/ha)
8.0: Herbicidal effect rating, ECHORC ([1]; 0.500 kg/ha)
0.0: Herbicidal effect rating, MOOVA ([…], PRESL.; 0.063 kg/ha) | Herbicidal effect rating, MOOVA ([…], PRESL.; 0.125 kg/ha) | Herbicidal effect rating, SAGPY (SAGITTARIA PYGMAEA, L.; 0.063 kg/ha) | Herbicidal effect rating, SAGPY (SAGITTARIA PYGMAEA, L.; 0.125 kg/ha) | Herbicidal effect rating, SAGPY (SAGITTARIA PYGMAEA, L.; 0.250 kg/ha) | Herbicidal effect rating, SAGPY (SAGITTARIA PYGMAEA, L.; 0.500 kg/ha) | SAGPY (SAGITTARIA PYGMAEA, L.; Rate 0.250 kg/ha) | SAGPY (SAGITTARIA PYGMAEA, L.; Rate 0.500 kg/ha) | SAGPY (SAGITTARIA PYGMAEA, L.; Rate 1.000 kg/ha) | CASOB (CASSIA OBTUSIFOLIA, L.; Rate 0.125 kg/ha) | CASOB herbicidal rating (CASSIA OBTUSIFOLIA, L.; Rate 0.125 kg/ha) | Herbicidal effect rating, ECHORC ([1]; 0.063 kg/ha) | Herbicidal effect rating, ECHORC ([1]; 0.125 kg/ha) | GLXMAW ([2]; Rate 0.125 kg/ha) | GLXMAW herbicidal rating ([2]; Rate 0.125 kg/ha) | GLXMAW ([2]; Rate 1.000 kg/ha) | ZEAMX (ZEA MAYS L.; Rate 0.125 kg/ha) | ZEAMX herbicidal rating (ZEA MAYS L.; Rate 0.125 kg/ha) | ZEAMX (ZEA MAYS L.; Rate 0.250 kg/ha) | ZEAMX herbicidal rating (ZEA MAYS L.; Rate 0.250 kg/ha) | ABUTH ([5]; Rate 0.125 kg/ha) | ABUTH herbicidal rating ([5]; Rate 0.125 kg/ha) | Herbicidal effect rating, CYPIR (CYPERUS IRIA; 0.063 kg/ha) | Herbicidal effect rating, CYPIR (CYPERUS IRIA; 0.125 kg/ha) | Herbicidal effect rating, CYPIR (CYPERUS IRIA; 0.250 kg/ha) | CYPIR (CYPERUS IRIA; Rate 0.250 kg/ha) | Herbicidal effect rating, CYPSE ([8]; 0.063 kg/ha) | Herbicidal effect rating, CYPSE ([8]; 0.125 kg/ha) | Herbicidal effect rating, CYPSE ([8]; 0.250 kg/ha) | Herbicidal effect rating, CYPSE ([8]; 0.500 kg/ha) | CYPSE ([8]; Rate 0.250 kg/ha) | CYPSE ([8]; Rate 0.500 kg/ha) | CYPSE ([8]; Rate 1.000 kg/ha)
3.5: GLXMAW ([7]; Rate 0.125 kg/ha) | GLXMAW rating ([7]; Rate 0.125 kg/ha)
2.0: Herbicidal effect rating, MOOVA ([…], PRESL.; 0.250 kg/ha) | MOOVA ([…], PRESL.; Rate 0.250 kg/ha) | CASOB (CASSIA OBTUSIFOLIA, L.; Rate 0.250 kg/ha) | CASOB herbicidal rating (CASSIA OBTUSIFOLIA, L.; Rate 0.250 kg/ha) | Herbicidal effect rating, ECHORC ([1]; 0.250 kg/ha) | ECHORC ([1]; Rate 0.250 kg/ha) | ORYSAT ([3]; Rate 0.125 kg/ha) | ORYSAT rating ([3]; Rate 0.125 kg/ha)

COC(=O)Cn1c(=O)n(C)c(=O)n(-c2cc(Oc3ccccn3)ccc2[N+](=O)[O-])c1=O [Compound 38, Methyl tetrahydro-3-methyl-5-[2-nitro-5-(2-pyridyloxy)phenyl]-2,4,6-trioxo-s-triazine-1(2H)-acetate]
0.5: GLXMAW rating ([7]; Rate 0.500 kg/ha)
2.0: ZEAMX herbicidal rating (ZEA MAYS L.; Rate 0.500 kg/ha)
1.0: GLXMAW herbicidal rating ([2]; Rate 0.500 kg/ha)
0.0: Herbicidal effect rating, MOOVA ([…], PRESL.; 0.500 kg/ha) | Herbicidal effect rating, SAGPY (SAGITTARIA PYGMAEA, L.; 0.500 kg/ha) | CASOB herbicidal rating (CASSIA OBTUSIFOLIA, L.; Rate 0.500 kg/ha) | Herbicidal effect rating, ECHORC ([1]; 0.500 kg/ha) | ORYSAT rating ([3]; Rate 0.500 kg/ha) | GALAP herbicidal rating (GALIUM APARINE [4]; Rate 0.500 kg/ha) | ABUTH herbicidal rating ([5]; Rate 0.500 kg/ha) | GALAP rating (GALIUM APARINE [6]; Rate 0.500 kg/ha) | Herbicidal effect rating, CYPIR (CYPERUS IRIA; 0.500 kg/ha) | Herbicidal effect rating, CYPSE ([8]; 0.500 kg/ha)
